The text below walks through data of patent US20250179029A1, “DEUTERATED RETINOIDAL COMPOUNDS AND SYNTHESIS AND USES THEREOF” (UNIVERSITY OF MARYLAND, BALTIMORE, priority 2022, published 2025).

A short description of series [1]: Plasma pharmacokinetics after single oral dose in female CD-1 mice. Type of series: in vivo. The settings on record: for AUC(0-inf) / MRT (mean residence time) / T1/2 (elimination half-life) / Tmax / Cmax / overall Rank by Total Score: single p.o. dose 10 mg/kg, female CD-1 mice; for AUC(0-inf) / MRT (mean residence time) / T1/2 (elimination half-life) / Tmax / Cmax: plasma; for Cmax: mean of three mice; for clearance from systemic circulation (plasma concentration versus time profile) / systemic exposure: single PO dosing, mice, FIGS. 12A-12C. How it is done:
The PK study was performed by the Certified Research Organization (CRO), Aragen Life Sciences Private Limited (Aragen), Hyderabad, India. All procedures of the present study were in accordance with the guidelines provided by the Committee for the Purpose of Control and Supervision of Experiments on Animals (CPCSEA) as published in The Gazette of India, Jan. 7, 2010. CPCSEA renewal number for institute is 1125/PO/Rc/S/CPCSEA on 13Feb. 2014. Institutional Animal Ethics Committee (IAEC) approval has been taken to initiate the study (IAEC Approval Number: B-011A). The details are presented in the Supplementary Materials.
To minimize the number of mice used in the PK study using a validated LC/MS/MS analysis, both individual (discrete) (set #1: Compound 5, EM=463.2937 and set #2: […], EM=463.2937) and cassette (set #3: Compounds 2, 3, and 7; EMs=459.2686, 462.2874 and 466.3125, respectively, and set #4: Compounds 4, 8, and 9; EMs=460.2749, 464.2999 and 467.3188, respectively) dosing were used.^59,66 The four sets studied were dictated by the exact molecular masses of the compounds as indicated above and in FIG. 3.
The plasma PK profiles were obtained after single oral (PO) dosing of the compounds in mice.
In Table 2, data are presented as the mean of values obtained from three female CD-1 mice. Cmax is the maximum observed plasma concentration. Tmax is the time to maximum concentration. T1/2 is the elimination half-life. AUC represents AUC (0-∞), which is the area under the concentration-time curve from time of dosing extrapolated to infinity. MRT refers to mean residence time. The number in parentheses indicate the rank order from best (1) to worst (8).

Series [2] relates to MCF7. Put plainly: MTT antiproliferative assay, MCF7 non-TNBC cells. The following applies: Homo sapiens, mean of three independent experiments. Type of series: cell-based. As for the experimental part:
(§1) Compounds 2, 4, 8 and 9, as well as paclitaxel (PTX) were evaluated over a range of concentrations to examine their antiproliferative activities against two non-TNBC cell lines, MCF7 and SKBR3using the well-established 3-(4,5-dimethylthiazolyl-2)-2,5-diphenyl tetrazolium bromide (MTT) assay.^48,55,56 The parent non-deuterated VNLG-152R (Compound 2) was used as the positive control.
(§2) As presented in Table 1 below, the GI50 values of the deuterated Compounds 4, 8 and 9 against the MCF7 cell are identical to the GI50 value of the parent protio VNLG-152R (Compound 2). In contrast, the SKBR3 cell appears to be more sensitive to the deuterated compounds compared to the parent non-deuterated VNLG-152R (Compound 2). The reason for this difference is not understood at this time. The applicant hypothesizes that the enhanced diffusion of these deuterated molecules across the cell membrane of this cell line may result in enhanced intracellular concentrations and inhibition of its proliferation. Each data point is a mean of replicates from three independent experiments.
For orientation: Tetrazolium dyes change colour on reduction, which living cells bring about.

The subject of series [3] is SKBR3. Kind of series: MTT antiproliferative assay, SKBR3 non-TNBC cells. The settings on record: Homo sapiens, SK-BR-3, mean of three independent experiments. Type of series: cell-based. As for the experimental part:
as §1, §2

Series [4] deals with MDA-MB-231 tumor xenograft. Put plainly: Anti-tumor activity in MDA-MB-231 xenograft mouse model. The settings on record: 20 mg/kg, PO, 5 days/week, 16 days. In kind it is in vivo. As for the experimental part:
(§3) FIGS. 13A-13D show the anti-tumor activity of VNLG-152R, Compound 4, Compound 8, and Compound 9 in xenograft mouse models. […] In FIGS. 13B and 13D, *=p<0.0001.
(§4) After confirming the improved pharmacokinetic parameters of deuterated compounds 4, 8, and 9, the anti-tumor activity of these compounds was tested in xenograft models of MDA-MB-231 and MDA-MB-468. In both models, the mice for each group were treated with either vehicle (control) or the compounds, each at 20 mg/kg, PO, 5 days/week.

For series [5], the system named is MDA-MB-468 tumor xenograft. Kind of series: Anti-tumor activity in MDA-MB-468 xenograft mouse model. Type of series: in vivo. The settings on record: 20 mg/kg, PO, 5 days/week, 16 days. As for the experimental part: as §3, §4
In series [6] the test system is androgen-sensitive and castration-resistant human prostate cancer cells. The settings on record: androgen-sensitive and castration-resistant human prostate cancer cells in vitro; cited from earlier work.

Where two headings read alike, the source gives them in different places.

With `[2H]c1nc([2H])n(C2CCC(C)(C)C(/C=C/C(C)=C/C=C/C(C)=C/C(=O)Nc3ccc(F)cc3)=C2C)c1[2H]` (racemic) [Compound 3, (±) 4-(Imidazolyl-2″3″5″-D3)-4-(H)-(4′-fluoro(phenyl))-(E)-retinamide], in series [1] (mouse, po), the AUC(0-inf) amounted to 1740 ng·h/mL. Also, in series [1], the “MRT (mean residence time)” value was 3.57 h, the “T1/2 (elimination half-life)” value is reported as 8.39 h, the Tmax was 1.33 h and the Cmax is listed as 151.17 ng/mL.

Consider `[2H]C1(n2ccnc2)CCC(C)(C)C(/C=C/C(C)=C/C=C/C(C)=C/C(=O)Nc2ccc(F)cc2)=C1C` (racemic) [Compound 4, (±) 4-(Imidazolyl)-4-(D)-(4′-fluoro(phenyl))-(E)-retinamide], for which the GI50 in series [2] is 230 ± 250 nM. The GI50 in series [3] is 140 ± 230 nM. Also, the AUC(0-inf) in series [1] (mouse, po) stood at 17600 ng·h/mL. Further, in series [1], the “clearance from systemic circulation (plasma concentration versus time profile)” value is “could not be detected after 8 hours”, the systemic exposure entry is given as “very low systemic exposures”, the “overall Rank by Total Score” value was found to be 2nd and the “MRT (mean residence time)” value stood at 9.06 h. Also, in series [1], the “T1/2 (elimination half-life)” value worked out at 12.05 h, the Tmax was 2.50 h and the Cmax came to 1031.65 ng/mL. In series [4], the “reduction of tumor growth” value came to 95%. Further, the tumor regression in series [5] was 6.6%.

Regarding `[2H]c1nc([2H])n(C2([2H])CCC(C)(C)C(/C=C/C(C)=C/C=C/C(C)=C/C(=O)Nc3ccc(F)cc3)=C2C)c1[2H]` (racemic) [Compound 5, (±) 4-(Imidazolyl-2″3″5″-D3)-4-(D)-(4′-fluoro(phenyl))-(E)-retinamide], the AUC(0-inf) in series [1] (mouse, po) is 2700 ng·h/mL. In addition, in series [1], the “MRT (mean residence time)” value is reported as 5.49 h, the “T1/2 (elimination half-life)” value is reported as 4.27 h, the Tmax was found to be 0.67 h and the Cmax is reported as 500.72 ng/mL.

`[2H]c1c([2H])c(NC(=O)/C=C(C)/C=C/C=C(C)/C=C/C2=C(C)C(n3ccnc3)CCC2(C)C)c([2H])c([2H])c1F` (racemic) [Compound 6, (±) 4-Imidazolyl-4(H)-(4′-fluoro(phenyl-2′3′5′6′-D4))-(E)-retinamide]: the AUC(0-inf) in series [1] (mouse, po) came to 1730 ng·h/mL. Further, in series [1] (mouse, po, read-out: Tmax), the time of peak concentration (Tmax) worked out at 0.83 h. Besides, in series [1], the “MRT (mean residence time)” value came to 4.63 h, the “T1/2 (elimination half-life)” value was 4.90 h and the Cmax amounted to 272.72 ng/mL.

In the case of `[2H]c1nc([2H])n(C2CCC(C)(C)C(/C=C/C(C)=C/C=C/C(C)=C/C(=O)Nc3c([2H])c([2H])c(F)c([2H])c3[2H])=C2C)c1[2H]` (racemic) [Compound 7, (±) 4-(Imidazolyl-2″3″5″-D3)-4-(H)-(4′-fluoro(phenyl-2′3′5′6′-D4))-(E)-retinamide], the AUC(0-inf) in series [1] (mouse, po) was found to be 2060 ng·h/mL. Also, in series [1], the “MRT (mean residence time)” value was 2.89 h, the “T1/2 (elimination half-life)” value was 4.34 h, the Tmax turned out to be 0.83 h and the Cmax is listed as 454.97 ng/mL.

`[2H]c1c([2H])c(NC(=O)/C=C(C)/C=C/C=C(C)/C=C/C2=C(C)C([2H])(n3ccnc3)CCC2(C)C)c([2H])c([2H])c1F` (racemic) [Compound 8, (±) 4-(Imidazolyl)-4-(D)-(4′-fluoro(phenyl-2′3′5′6′-D4))-(E)-retinamide]: in series [2], it took 330 ± 140 nM to inhibit growth by half (GI50). In addition, the GI50 in series [3] came out at 110 ± 200 nM. For the same compound, the AUC(0-inf) in series [1] (mouse, po) amounted to 15500 ng·h/mL. In series [1], the “clearance from systemic circulation (plasma concentration versus time profile)” value is recorded as “could not be detected after 8 hours”, the systemic exposure entry is given as “very low systemic exposures”, the “overall Rank by Total Score” value is listed as 3rd and the “MRT (mean residence time)” value is reported as 8.48 h. In series [1], the “T1/2 (elimination half-life)” value came out at 10.20 h, the Tmax was 0.75 h and the Cmax was found to be 1361.22 ng/mL. For the same compound, the “reduction of tumor growth” value in series [4] is recorded as 95%. Further, the “reduction of tumor growth” value in series [5] is listed as 93%.

In the case of `[2H]c1nc([2H])n(C2([2H])CCC(C)(C)C(/C=C/C(C)=C/C=C/C(C)=C/C(=O)Nc3c([2H])c([2H])c(F)c([2H])c3[2H])=C2C)c1[2H]` (racemic) [Compound 9, (±) 4-(Imidazolyl-2″3″5″-D3)-4-(D)-(4′-fluoro(phenyl-2′3′5′6′-D4))-(E)-retinamide], in series [2], growth was halved (GI50) at 220 ± 130 nM. This compound had a GI50 in series [3] of 100 ± 140 nM. In series [1] (mouse, po), this compound came in with an AUC(0-inf) of 22600 ng·h/mL. In series [1], the “MRT (mean residence time)” value was found to be 8.92 h, the “T1/2 (elimination half-life)” value amounted to 10.28 h, the Tmax amounted to 2.67 h and the Cmax was 1615.81 ng/mL. Besides, the tumor regression in series [4] is 67%. The tumor regression in series [5] is listed as 37%.

Consider `CC1=C(/C=C/C(C)=C/C=C/C(C)=C/C(=O)Nc2ccc(F)cc2)C(C)(C)CCC1=O` [Compound 16, 4-Oxo-(4′-fluoro(phenyl))-(E)-retinamide], for which, in series [1], the “MRT (mean residence time)” value was found to be 9.06 h and the “T1/2 (elimination half-life)” value was 12.05 h.

On to `CC(=O)O[C@H]1C(=O)[C@@]2(C)[C@H]([C@H](OC(=O)c3ccccc3)[C@]3(O)C[C@H](OC(=O)[C@H](O)[C@@H](NC(=O)c4ccccc4)c4ccccc4)C(C)=C1C3(C)C)[C@]1(OC(C)=O)CO[C@@H]1C[C@@H]2O` [Paclitaxel, paclitaxel, reference compound], for which the GI50 in series [2] and in series [3] was 60 ± 120 nM in each case.

As to `CC1=C(/C=C/C(C)=C/C=C/C(C)=C/C(=O)Nc2ccccc2O)C(C)(C)CCC1n1ccnc1` (centres unmarked) [VNLG-147, (2E,4E,6E,8E)-N-(2-hydroxyphenyl)-9-(3-imidazolyl-2,6,6-trimethylcyclohex-1-enyl)-3,7-dimethylnona-2,4,6,8-tetraenamide], the “anti-proliferative and anti-metastatic activities” value in series [6] is “potent”.

In the case of `CC1=C(/C=C/C(C)=C/C=C/C(C)=C/C(=O)Nc2ccccc2)C(C)(C)CCC1n1ccnc1` (centres unmarked) [VNLG-153, (2E,4E,6E,8E)-9-(3-imidazolyl-2,6,6-trimethylcyclohex-1-enyl)-3,7-dimethyl-N-phenylnona-2,4,6,8-tetraenamide], the “anti-proliferative and anti-metastatic activities” value in series [6] was “potent”.

The term AUC(0-inf) denotes total exposure, with the tail of the curve extrapolated. Higher therefore signals high exposure. For orientation: Tmax means the time at which the peak concentration occurs. By Cmax is commonly meant the peak of the concentration-time curve. One may read the GI50 as the concentration giving 50% growth inhibition. High values mean less potent growth inhibition, low ones more potent growth inhibition.
